{"source": "patent US20110091560A1", "about": "“COMPOSITIONS OF NANOPARTICLES AND METHODS OF MAKING THE SAME” (The Burnham Institute for Medical Research, priority 2009, published 2011)", "origin": "cited, not measured here", "settings": "Log P, octanol and water", "note": "Structures can show the parent of a compound that is named as a salt. Where two headings read alike, the source gives them in different places."}
{"compound": "CC(C)(C#N)c1cc(Cn2cncn2)cc(C(C)(C)C#N)c1", "note": "[Anastrozole]", "values": [{"measurement": "Partition Coefficient", "value": 3.5}]}
{"compound": "O=C(/C=C/c1cccc(S(=O)(=O)Nc2ccccc2)c1)NO", "note": "[Belinostat]", "values": [{"measurement": "Partition Coefficient", "value": 1}]}
{"compound": "CC(C)C[C@H](NC(=O)[C@H](Cc1ccccc1)NC(=O)c1cnccn1)B(O)O", "note": "[Bortezomib]", "values": [{"measurement": "Partition Coefficient", "value": "−0.4"}]}
{"compound": "O=P(O)(O)C(Cl)(Cl)P(=O)(O)O", "note": "[Clodronate]", "values": [{"measurement": "Partition Coefficient", "value": "−5.6"}]}
{"compound": "O=C(/C=C/c1ccc(CN(CCO)CCc2c[nH]c3ccccc23)cc1)NO", "note": "[Dacinostat]", "values": [{"measurement": "Partition Coefficient", "value": 2.1}]}
{"compound": "Cc1nc(Nc2ncc(C(=O)Nc3c(C)cccc3Cl)s2)cc(N2CCN(CCO)CC2)n1", "note": "[Dasatinib]", "values": [{"measurement": "Partition Coefficient", "value": 3.9}]}
{"compound": "Nc1ccccc1NC(=O)c1ccc(CNC(=O)OCc2cccnc2)cc1", "note": "[Entinostat]", "values": [{"measurement": "Partition Coefficient", "value": 3.1}]}
{"compound": "C#Cc1cccc(Nc2ncnc3cc(OCCOC)c(OCCOC)cc23)c1", "note": "[Erlotinib HCl]", "values": [{"measurement": "Partition Coefficient", "value": 3.9}]}
{"compound": "CC(O)(P(=O)(O)O)P(=O)(O)O", "note": "[Etidronate]", "values": [{"measurement": "Partition Coefficient", "value": "−6"}]}
{"compound": "CO[C@H]1C[C@@H]2CC[C@@H](C)[C@@](O)(O2)C(=O)C(=O)N2CCCC[C@H]2C(=O)O[C@H]([C@H](C)C[C@@H]2CC[C@@H](OCCO)[C@H](OC)C2)CC(=O)[C@H](C)/C=C(\\C)[C@@H](O)[C@@H](OC)C(=O)[C@H](C)C[C@H](C)/C=C/C=C/C=C/1C", "note": "[Everolimus]", "values": [{"measurement": "Partition Coefficient", "value": 6.8}]}
{"compound": "O=c1[nH]cc(F)c(=O)[nH]1", "note": "[Example 5-FU, 5-FU]", "values": [{"measurement": "Partition Coefficient", "value": "−0.6"}]}
{"compound": "C=CCNC1=C2C[C@@H](C)C[C@H](OC)[C@H](O)[C@@H](C)/C=C(\\C)[C@H](OC(N)=O)[C@@H](OC)/C=C\\C=C(/C)C(=O)NC(=CC1=O)C2=O", "note": "[Example 17-AAG, 17-AAG]", "values": [{"measurement": "Partition Coefficient", "value": 3.4}]}
{"compound": "C=C1C[C@@H]2[C@H](CC[C@]3(C)C(=O)CC[C@@H]23)[C@@]2(C)C=CC(=O)C=C12", "note": "[Exemestane]", "values": [{"measurement": "Partition Coefficient", "value": 3.8}]}
{"compound": "C[C@]12CCC(=O)C(O)=C1CC[C@@H]1[C@@H]2CC[C@]2(C)C(=O)CC[C@@H]12", "note": "[Formestane]", "values": [{"measurement": "Partition Coefficient", "value": 3.1}]}
{"compound": "C[C@]12CC[C@@H]3c4ccc(O)cc4C[C@@H](CCCCCCCCC[S+]([O-])CCCC(F)(F)C(F)(F)F)[C@H]3[C@@H]1CC[C@@H]2O", "note": "(some centres unmarked) [Fulvestrant (SERD), Fulvestrant]", "values": [{"measurement": "Partition Coefficient", "value": 8.5}]}
{"compound": "COc1cc2ncnc(Nc3ccc(F)c(Cl)c3)c2cc1OCCCN1CCOCC1", "note": "[Gefitinib]", "values": [{"measurement": "Partition Coefficient", "value": 4.5}]}
{"compound": "CCCCCN(C)CCC(O)(P(=O)(O)O)P(=O)(O)O", "note": "[Ibandronate sodium]", "values": [{"measurement": "Partition Coefficient", "value": "−4.4"}]}
{"compound": "CC1=C(CO)C2=C(C)C3(CC3)[C@@](C)(O)C(=O)C2=C1", "note": "[Irofulven]", "values": [{"measurement": "Partition Coefficient", "value": 4.7}]}
{"compound": "CS(=O)(=O)CCNCc1ccc(-c2ccc3ncnc(Nc4ccc(OCc5cccc(F)c5)c(Cl)c4)c3c2)o1", "note": "[Lapatinib]", "values": [{"measurement": "Partition Coefficient", "value": 5.1}]}
{"compound": "N#Cc1ccc(C(c2ccc(C#N)cc2)n2cncn2)cc1", "note": "[Letrozole]", "values": [{"measurement": "Partition Coefficient", "value": 3.1}]}
{"compound": "NC(=O)N1CCC(CC(=O)N2CCC([C@H]3c4ncc(Br)cc4CCc4cc(Cl)cc(Br)c43)CC2)CC1", "note": "[Lonafarnib]", "values": [{"measurement": "Partition Coefficient", "value": 3.1}]}
{"compound": "Cc1nc(N)nc(N)c1-c1ccc(Cl)c(Cl)c1", "note": "[Metoprine]", "values": [{"measurement": "Partition Coefficient", "value": 2.6}]}
{"compound": "Nc1ccccc1NC(=O)c1ccc(CNc2nccc(-c3cccnc3)n2)cc1", "note": "[Mocetinostat]", "values": [{"measurement": "Partition Coefficient", "value": 2.7}]}
{"compound": "CC(=O)O[C@H]1C(=O)[C@@]2(C)[C@H]([C@H](OC(=O)c3ccccc3)[C@]3(O)C[C@H](OC(=O)[C@H](O)[C@@H](NC(=O)c4ccccc4)c4ccccc4)C(C)=C1C3(C)C)[C@]1(OC(C)=O)CO[C@@H]1C[C@@H]2O", "note": "[Paclitaxel]", "values": [{"measurement": "Partition Coefficient", "value": 3.6}, {"measurement": "Partition Coefficient", "setting": "listed as paclitaxel", "value": "about 3.6"}]}
{"compound": "NCCC(O)(P(=O)(O)O)P(=O)(O)O", "note": "[Pamidronate]", "values": [{"measurement": "Partition Coefficient", "value": "−7"}]}
{"compound": "Cc1[nH]c2ccccc2c1CCNCc1ccc(/C=C/C(=O)NO)cc1", "note": "[Panobinostat]", "values": [{"measurement": "Partition Coefficient", "value": 2.8}]}
{"compound": "O=C(c1ccc(OCCN2CCCCC2)cc1)c1c(-c2ccc(O)cc2)sc2cc(O)ccc12", "note": "[Raloxifene]", "values": [{"measurement": "Partition Coefficient", "value": 6.3}]}
{"compound": "CO[C@H]1C[C@@H]2CC[C@@H](C)[C@@](O)(O2)C(=O)C(=O)N2CCCC[C@H]2C(=O)O[C@H]([C@H](C)C[C@@H]2CC[C@@H](O)[C@H](OC)C2)CC(=O)[C@H](C)/C=C(\\C)[C@@H](O)[C@@H](OC)C(=O)[C@H](C)C[C@H](C)/C=C/C=C/C=C/1C", "note": "[Rapamycin]", "values": [{"measurement": "Partition Coefficient", "value": 6.9}]}
{"compound": "O=P(O)(O)C(O)(Cc1cccnc1)P(=O)(O)O", "note": "[Risedronate]", "values": [{"measurement": "Partition Coefficient", "value": "−5.8"}]}
{"compound": "CO[C@H]1C[C@@H]2CC[C@@H](C)[C@@](O)(O2)C(=O)C(=O)N2CCCC[C@H]2C(=O)O[C@H]([C@H](C)C[C@@H]2CC[C@@H](OC(=O)C(C)(CO)CO)[C@H](OC)C2)CC(=O)[C@H](C)/C=C(\\C)[C@@H](O)[C@@H](OC)C(=O)[C@H](C)C[C@H](C)/C=C/C=C/C=C/1C", "note": "[Temsirolimus]", "values": [{"measurement": "Partition Coefficient", "value": 6.8}]}
{"compound": "O=P(O)(O)C(Sc1ccc(Cl)cc1)P(=O)(O)O", "note": "[Tiludronate]", "values": [{"measurement": "Partition Coefficient", "value": 2.3}]}
{"compound": "CN(C)CCOc1ccc(/C(=C(/CCCl)c2ccccc2)c2ccccc2)cc1", "note": "[Toremifene]", "values": [{"measurement": "Partition Coefficient", "value": 5.7}]}
{"compound": "CCCC(CCC)C(=O)O", "note": "[Valproic acid]", "values": [{"measurement": "Partition Coefficient", "value": 2.6}]}
{"compound": "C[C@]1(c2nc3c(C(N)=O)cccc3[nH]2)CCCN1", "note": "[Veliparib (ABT-888), Veliparib]", "values": [{"measurement": "Partition Coefficient", "value": 1}]}
{"compound": "O=C(CCCCCCC(=O)Nc1ccccc1)NO", "note": "[Vorinostat (SAHA), Vorinostat]", "values": [{"measurement": "Partition Coefficient", "value": 1.4}]}
{"compound": "O=P1(N(CCCl)CCCl)NCCCO1", "note": "(centres unmarked) [cyclosphosphamide]", "values": [{"measurement": "Partition Coefficient", "value": 0.3}]}
{"compound": "COc1cc([C@@H]2c3cc4c(cc3[C@@H](O[C@@H]3O[C@@H]5CO[C@@H](C)O[C@H]5[C@H](O)[C@H]3O)[C@H]3COC(=O)[C@H]23)OCO4)cc(OC)c1O", "note": "[etoposide]", "values": [{"measurement": "Partition Coefficient", "value": 0.06}]}
{"compound": "Nc1nc(F)nc2c1ncn2[C@@H]1O[C@H](CO)[C@@H](O)[C@@H]1O", "note": "[fludarabine]", "values": [{"measurement": "Partition Coefficient", "value": "−1.3"}]}
{"compound": "Nc1ccn([C@@H]2O[C@H](CO)[C@@H](O)C2(F)F)c(=O)n1", "note": "[gemcitabine]", "values": [{"measurement": "Partition Coefficient", "value": "−1.4"}]}
{"compound": "CN(Cc1cnc2nc(N)nc(N)c2n1)c1ccc(C(=O)N[C@@H](CCC(=O)O)C(=O)O)cc1", "note": "[methotrexate]", "values": [{"measurement": "Partition Coefficient", "value": "−0.7"}]}
